Laboratory results as given in publication PMC5867665, “Targeting Multiple Effector Pathways in Pancreatic Ductal Adenocarcinoma with a G-Quadruplex-Binding Small Molecule” (Journal of Medicinal Chemistry, 2018).

Assays:
[1] = test system: MIA PaCa-2 pancreatic tumor xenograft; experiment: Subcutaneous MIA PaCa-2 pancreatic tumor xenograft therapy study; type: in vivo; conditions: for tumor regrowth after dosing stopped: 15 mg/kg, from day 28 onward
Protocol: To determine if the in vitro activity of CM03 was paralleled in vivo, we explored the activity of CM03 in a mouse xenograft model of PDAC. We have previously reported that the maximum tolerated dosage (MTD) for intravenous (IV) administration of MM41 is 25 mg/kg.[33] CM03 was well tolerated, up to a dosage of 45–50 mg/kg, as judged by a dose-escalation MTD study. A therapeutic schedule of two CM03 intravenous (IV) doses was explored using a subcutaneous MIA PaCa-2 pancreatic tumor xenograft model derived from the human cell line used in the cell growth inhibition studies. A group size of eight CD-1 nude mice was used, and dosing was conducted at 10 and 15 mg/kg, each twice weekly, over a period of 4 weeks (28 days: 8 doses). Two further groups were given either MM41 or gemcitabine at 15 mg/kg and received the same dose regimen. […] IVIS imaging of treated mice was performed by taking account of the intrinsic fluorescence of CM03. […] Thus, in contrast to MM41 and gemcitabine, the higher-dose CM03 treatment results in a statistically significant (p < 0.001) antitumor effect, which persisted long after dosing had ceased, up to the termination of the xenograft experiment (62 days).
For therapy studies, female CD-1 nude mice (2–3 months old, weighing 20–25 g) were injected subcutaneously with 5 × 10^6 MIA PaCa-2 cells in the right flank (unsupplemented RPMI + Matrigel). When the tumors were established (approximately 13 days, mean size 0.05 cm^3), the mice were divided into five treatment groups with eight mice/group. The MM41 and CM03 samples were dissolved directly in saline to the required concentrations and administered IV. Tumor size was measured weekly by calliper using the π-based ellipsoid volume formula (length × width × height × π/6) every 3–4 days, and the mice were also weighed and examined at the same time to determine any signs of toxicity from the drug.
• Group 1:15 mg/kg of gemcitabine (Sigma), twice weekly dose. • Group 2:15 mg/kg of MM41, twice weekly dose. • Group 3:10 mg/kg of CM03, twice weekly dose. • Group 4:15 mg/kg of CM03, twice weekly dose. • Group 5: saline only, twice weekly dose.
The xenograft data was analyzed using Student’s t test (GraphPad Inc.). Responses were considered to be significant for those with probabilities (p) less than 5% (p < 0.05). Mice were culled if there was any sign of tumor ulceration, if tumor volume exceeded 1.5 cm^3, or if a weight loss over 20% of initial body weight was observed. Samples of liver, kidney, and spleen from each animal in the CM03 (15 mg/kg) and untreated control groups were excised at the end of the therapy experiment, then fixed in 10% neutral buffered formalin for at least 48 h prior to processing and paraffin embedding. Tissue slices were stained with hematoxylin and eosin and assessed visually for any obvious differences compared with controls, indicative of toxicity and tissue damage. For the imaging study mice were anesthetized using isoflurane and imaged using the IVIS preclinical imaging system from PerkinElmer. Images were captured after 4 h following intravenous administration of CM03 using Cy5.5 excitation for 5 s.

[2] = test system: MIA PaCa-2 and PANC-1 cells; experiment: RT-qPCR validation of down-regulated genes; type: cell-based, human
Description: The RNA-seq results are consistent with the hypothesis that G4 ligands can alter gene expression when PQs are targets in individual genes.[23] Previously, global G4-motif specific changes in the transcriptome with bisquinolinium compounds in HeLa cells have been reported using microarray analysis.[48] However, our work represents the first comprehensive analysis using state-of-the-art RNA-seq methodology. […] The observed transcriptional effects of CM03 also align with the hypothesis that down-regulation of gene expression is mediated through ligand-stabilized G4s, causing for example steric hindrance and inhibition of RNA pol II in the transcription bubble (reviewed in ref ([23])). The observations that transcriptional effects are closely aligned in two PDAC cell lines, independently sequenced, gives added confidence to these conclusions.
MIA PaCa-2 (6 h = 2.5 × 10^6 and 24 h = 1.0 × 10^6 cells/well) and PANC-1 (6 h = 1.0 × 10^6 and 24 h = 0.5 × 10^6 cells/well) cell lines were seeded in 100 mm plates and incubated overnight. […] The concentration of harvested RNA was measured with a NanoDrop 2000/2000c spectrophotometer (ThermoFisher). […] The Ct values were normalized to the genomic mean of three housekeeping genes ACTB, GAPDH, and TUBB, and the fold change was determined using 2^–ΔΔCt.

[3] = 15 mg/kg IV twice weekly for 28 days

Nc1ccn([C@@H]2O[C@H](CO)[C@@H](O)C2(F)F)c(=O)n1 [gemcitabine, reference compound]
MTV ± SEM (Day 29) [1, 3]: 0.05 ± 0.02 cm^3 | MTV ± SEM (Day 62) [1, 3]: 0.23 ± 0.10 cm^3 | tumor regrowth after dosing stopped [1]: tumor regrowth being apparent as soon as dosing was stopped | RT-qPCR expression of a small set of PDAC-pathway genes ([2]; 400 nM gemcitabine, 6 and 24 h): not significantly affected

O=C1c2ccc3c4c(c(NCCN5CCCC5)cc(c24)C(=O)N1CCCN1CCOCC1)C(=O)N(CCCN1CCOCC1)C3=O [CM03, 2,7-bis(3-morpholinopropyl)-4-((2-(pyrrolidin-1-yl)ethyl)amino)benzo[lmn][3,8]phenanthroline-1,3,6,8(2H,7H)-tetraone]
MTV ± SEM (Day 62) ([1]; 10 mg/kg IV twice weekly for 28 days): 0.29 ± 0.10 cm^3 | IVIS imaging, accumulation in tumor xenograft ([1]; 10 mg/kg, 4 h after IV administration): significant accumulation of CM03 in the tumor xenograft | MTV ± SEM (Day 29) [1, 3]: 0.04 ± 0.02 cm^3 | MTV ± SEM (Day 62) [1, 3]: 0.09 ± 0.05 cm^3 | animals with tumor volumes that shrank to <0.05 cm^3 by day 62 ([1]; 15 mg/kg cohort): Five out of the eight | body weight and adverse effects ([1]; 15 mg/kg cohort, any time during the study): No body weight reduction | tumor regrowth after dosing stopped [1]: no tumor regrowth was observed | histopathological analysis of vital organs ([1]; animals sacrificed at the end of the experiments): no sign of organ damage | RT-qPCR expression of a small set of PDAC-pathway genes ([2]; 400 nM CM03, 6 and 24 h): transcriptionally down-regulated in both cell lines
